In experiment [1] the target is T1, wild-type auxin receptor (TIR1) (Arabidopsis thaliana, UniProt Q570C0).
T1 construct: expressed in transfected cells; host or cells: Saccharomyces cerevisiae strain EGY48
T1 sequence (Q570C0 1-594): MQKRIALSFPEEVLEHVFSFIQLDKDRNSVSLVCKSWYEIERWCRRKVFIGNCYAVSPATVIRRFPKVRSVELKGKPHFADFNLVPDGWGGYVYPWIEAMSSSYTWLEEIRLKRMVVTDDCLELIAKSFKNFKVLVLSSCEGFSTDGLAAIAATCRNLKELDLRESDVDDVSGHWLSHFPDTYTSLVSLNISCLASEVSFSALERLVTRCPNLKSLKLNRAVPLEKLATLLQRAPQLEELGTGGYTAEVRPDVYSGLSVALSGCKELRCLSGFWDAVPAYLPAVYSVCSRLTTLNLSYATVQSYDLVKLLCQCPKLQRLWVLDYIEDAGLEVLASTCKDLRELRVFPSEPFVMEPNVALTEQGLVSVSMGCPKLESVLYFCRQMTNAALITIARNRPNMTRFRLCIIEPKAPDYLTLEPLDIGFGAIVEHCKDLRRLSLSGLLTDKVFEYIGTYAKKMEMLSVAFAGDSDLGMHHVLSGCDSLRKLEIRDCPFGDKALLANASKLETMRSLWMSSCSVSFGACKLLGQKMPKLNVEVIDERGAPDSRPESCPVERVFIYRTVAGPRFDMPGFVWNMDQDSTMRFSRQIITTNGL
T1 sequence (Q38822 1-93 partner limits assumed): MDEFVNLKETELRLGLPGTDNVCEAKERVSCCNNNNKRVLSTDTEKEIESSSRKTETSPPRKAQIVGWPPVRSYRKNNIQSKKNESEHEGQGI
Briefly: Evaluation of binding to auxin receptor (yeast two-hybrid assay), wild-type receptor. Particulars: yeast EGY48, LacZ reporter, X-gal, 30° C. for 3 days; wild type auxin receptor with AUX/IAA protein. The protocol:
(§1) Test Example 1: Evaluation of Binding to Auxin Receptor (Yeast Two-Hybrid Assay
(§2) Specifically, the inventors set up the assay in the following manner.
The transformant was cultured at 30° C. on an agar plate made of yeast growth medium (minimal SD base and -His/-Trp/-Ura dropout supplement). The colonies were picked up and incubated overnight in liquid SD/-His/-Trp/-Ura medium at 30° C. Afterwards, the medium was replaced with a liquid medium composed of minimal SD/Gal/Raf base, -His/-Trp/-Ura dropout supplement, 50 mM Na-phosphate buffer (pH 7.0), […] X-gal, and various concentrations of test compounds. After incubation at 30° C. for 3 days, the medium containing yeast was transferred to a white 96-well plate (flat bottom) and observed.
(§3) In Table 1, the concentration of “wt TIR” indicates the minimum concentration of the test compound in which the well turns blue when the wild type auxin receptor is used, whereas the concentration of “mut” indicates the minimum concentration of the test compound in which the well turns blue when the mutant auxin receptor (TIR1 F79G) is used.

Experiment [2] addresses T2, mutant auxin receptor (TIR1 F79G) (Arabidopsis thaliana, UniProt Q570C0, F79G).
T2 construct: expressed in transfected cells; host or cells: Saccharomyces cerevisiae strain EGY48
Briefly: Evaluation of binding to auxin receptor (yeast two-hybrid assay), mutant TIR1 F79G. Particulars: for mut TIR: minimum concentration of the test compound in which the well turns blue: yeast EGY48, LacZ reporter, X-gal, 30° C. for 3 days, TIR1 F79G with AUX/IAA protein.
Source text: as §1, §2
Yeast strain EGY48 was transformed into a plasmid (pSH18-34) containing a LacZ expression cassette (LexA-operon: LacZ reporter) that is transcriptionally regulated by the LexA-operon, a plasmid derived from pGLex313 containing an expression cassette of LexA-DNA-binding domain fusion protein A (the wild-type auxin receptor: SEQ ID NO. 1, or mutant auxin receptor (TIR1 F79G) where the amino acid residue 79 (phenylalanine) in the wild-type is mutated to a glycine: SEQ ID NO. 2), and a plasmid derived from pJG4-5 containing an expression cassette of B42 transcription activator fusion protein B (AUX/IAA protein: SEQ ID NO: 3). The transformant was cultured at 30° C. on an agar plate made of yeast growth medium (minimal SD base and -His/-Trp/-Ura dropout supplement). The colonies were picked up and incubated overnight in liquid SD/-His/-Trp/-Ura medium at 30° C. Afterwards, the medium was replaced with a liquid medium composed of minimal SD/Gal/Raf base, -His/-Trp/-Ura dropout supplement, 50 mM Na-phosphate buffer (pH 7.0), […] X-gal, and various concentrations of test compounds. After incubation at 30° C. for 3 days, the medium containing yeast was transferred to a white 96-well plate (flat bottom) and observed. The lower the concentration of the test compound when blue color appears, the higher the binding between the test compound and the auxin receptor (wild type or mutant) is. Conversely, higher the concentration of test compound when the blue color appears for the first time, the lower the binding between the test compound and the auxin receptor (wild type or mutant).
as §3

T2 sequence (Q570C0 whole entry F79G, one chain of several): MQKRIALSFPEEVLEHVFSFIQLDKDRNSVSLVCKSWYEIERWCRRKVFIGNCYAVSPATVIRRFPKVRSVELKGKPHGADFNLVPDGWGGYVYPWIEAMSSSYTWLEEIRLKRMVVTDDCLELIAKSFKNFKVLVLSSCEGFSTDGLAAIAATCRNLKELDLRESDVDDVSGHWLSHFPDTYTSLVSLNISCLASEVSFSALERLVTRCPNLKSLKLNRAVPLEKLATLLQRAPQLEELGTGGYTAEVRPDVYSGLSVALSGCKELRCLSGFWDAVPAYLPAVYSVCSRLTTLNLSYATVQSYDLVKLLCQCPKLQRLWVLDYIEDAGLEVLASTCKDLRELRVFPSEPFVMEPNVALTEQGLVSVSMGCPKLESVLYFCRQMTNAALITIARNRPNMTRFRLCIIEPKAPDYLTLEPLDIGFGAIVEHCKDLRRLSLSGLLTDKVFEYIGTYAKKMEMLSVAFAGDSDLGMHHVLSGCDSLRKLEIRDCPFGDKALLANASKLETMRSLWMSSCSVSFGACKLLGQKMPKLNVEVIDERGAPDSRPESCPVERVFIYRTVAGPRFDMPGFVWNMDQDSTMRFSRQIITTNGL

Consider `O=C(O)Cc1c[nH]c2ccc(-c3cc4ccccc4s3)cc12` [Compound 14, 2-(5-(Benzo[b]thiophen-2-yl)-1H-indol-3-yl)acetic acid], for which the “wt TIR: minimum concentration of the test compound in which the well turns blue” value (shortened to “wt TIR: minimum concentration”) in experiment [1] was over 1 µM. In addition, the “mut TIR: minimum concentration of the test compound in which the well turns blue” value (shortened to “mut TIR: minimum concentration”) in experiment [2] worked out at 0.01 µM.

Regarding `COc1ccccc1-c1ccc2[nH]cc(CC(=O)O)c2c1` [Example 27A, 5-(2-methoxyphenyl)-indole-3-acetic acid], the “wt TIR: minimum concentration” value in experiment [1] stood at 100 µM. Also, the “mut TIR: minimum concentration” value in experiment [2] was found to be 10 µM.

For `COc1cccc(-c2ccc3[nH]cc(CC(=O)O)c3c2)c1` [Example 27B, 5-(3-methoxyphenyl)-indole-3-acetic acid], the “wt TIR: minimum concentration” value in experiment [1] is 100 µM. Moreover, the “mut TIR: minimum concentration” value in experiment [2] is 1 µM.

On to `O=C(O)Cc1c[nH]c2ccc(-c3ccc4ccccc4c3)cc12` [Example 27D, 5-(2-naphthyl)-indole-3-acetic acid], for which the “wt TIR: minimum concentration” value in experiment [1] amounted to 10 µM. In addition, in experiment [2], the “mut TIR: minimum concentration” value stood at 0.1 µM.

As for `O=C(O)Cc1c[nH]c2ccc(-c3ccccc3)cc12` [Example 42A, 5-(2-Phenyl)-indole-3-acetic acid], the “wt TIR: minimum concentration” value in experiment [1] came out at 1 µM. The “mut TIR: minimum concentration” value in experiment [2] turned out to be 0.01 µM.

Regarding `O=C(O)Cc1c[nH]c2ccccc12` [Indole-3-acetic acid, indole-3-acetic acid, reference compound], the “wt TIR: minimum concentration” value in experiment [1] stood at 0.1 µM. Moreover, the “binding affinity of the mutant auxin receptor (TIR1 F79G) relative to that of the wild type auxin receptor” value in experiment [2] (ratio mutant / wild type, from Table 1) was “less than 1/1000”. Also, the “mut TIR: minimum concentration” value in experiment [2] is over 100 µM.

Consider `Cc1ccccc1-c1ccc2[nH]cc(CC(=O)O)c2c1` [MK-189, 2-(5-(o-tolyl)-1H-indol-3-yl)acetic acid], for which, in experiment [1], the “wt TIR: minimum concentration” value turned out to be 10 µM. For the same compound, the “mut TIR: minimum concentration” value in experiment [2] came out at 0.1 µM.

Take `Cc1cccc(-c2ccc3[nH]cc(CC(=O)O)c3c2)c1` [MK-190, 2-(5-(m-tolyl)-1H-indol-3-yl)acetic acid]: in experiment [1], the “wt TIR: minimum concentration” value turned out to be 10 µM. Besides, the “mut TIR: minimum concentration” value in experiment [2] came to 0.1 µM.

For the compound `CC(C)(C)c1ccc(-c2ccc3[nH]cc(CC(=O)O)c3c2)cc1` [MK-198, 2-(5-(4-(tert-butyl)phenyl)-1H-indol-3-yl) acetic acid], the “wt TIR: minimum concentration” value in experiment [1] was 100 µM. In addition, in experiment [2], the “mut TIR: minimum concentration” value amounted to 10 µM.

For `O=C(O)Cc1c[nH]c2ccc(-c3ccc4c(c3)OCO4)cc12` [MK-209, 2-(5-(benzo[d][1,3]dioxol-5-yl)-1H-indol-3-yl) acetic acid], the “wt TIR: minimum concentration” value in experiment [1] came out at 10 µM. Further, the “mut TIR: minimum concentration” value in experiment [2] worked out at 0.1 µM.

On to `CCOc1cccc(-c2ccc3[nH]cc(CC(=O)O)c3c2)c1` [MK-211, 2-(5-(3-ethoxyphenyl)-1H-indol-3-yl)acetic acid], for which the “wt TIR: minimum concentration” value in experiment [1] is 100 µM. Moreover, the “mut TIR: minimum concentration” value in experiment [2] was found to be 10 µM.

As to `Cc1cc(-c2ccc3[nH]cc(CC(=O)O)c3c2)ccc1F` [MK-213, 2-(5-(4-fluoro-3-methylphenyl)-1H-indol-3-yl)acetic acid], in experiment [1], the “wt TIR: minimum concentration” value came out at 10 µM. For the same compound, the “mut TIR: minimum concentration” value in experiment [2] is 0.1 µM.

Regarding `COc1ccc(-c2ccc3[nH]cc(CC(=O)O)c3c2)cc1C` [MK-214, 2-(5-(4-methoxy-3-methylphenyl)-1H-indol-3-yl)acetic acid], in experiment [1], the “wt TIR: minimum concentration” value is 100 µM. Besides, in experiment [2], the “mut TIR: minimum concentration” value came to 10 µM.

For `Cc1ccc(C)c(-c2ccc3[nH]cc(CC(=O)O)c3c2)c1` [MK-221, 2-(5-(2,5-dimethylphenyl)-1H-indol-3-yl)acetic acid], the “wt TIR: minimum concentration” value in experiment [1] is over 100 µM. In addition, the “mut TIR: minimum concentration” value in experiment [2] was determined as 10 µM.

As for `Cc1ccc(-c2ccc3[nH]cc(CC(=O)O)c3c2)cc1C` [MK-230, 2-(5-(3,4-dimethylphenyl)-1H-indol-3-yl)acetic acid], the “wt TIR: minimum concentration” value in experiment [1] came out at 10 µM. Moreover, in experiment [2], the “mut TIR: minimum concentration” value is 0.1 µM.

Take `O=C(O)Cc1c[nH]c2cc(-c3ccccc3-c3ccccc3)ccc12` [MK-232, 2-(6-([1,1′-biphenyl]-2-yl)-1H-indol-3-yl)acetic acid]: in experiment [1], the “wt TIR: minimum concentration” value amounted to 100 µM. For the same compound, the “mut TIR: minimum concentration” value in experiment [2] is 10 µM.

For the compound `Cc1cccc(-c2ccc3c(CC(=O)O)c[nH]c3c2)c1` [MK-245, 2-(6-(m-tolyl)-1H-indol-3-yl)acetic acid], in experiment [1], the “wt TIR: minimum concentration” value stood at 10 µM. The “mut TIR: minimum concentration” value in experiment [2] is 0.1 µM.

For the compound `O=C(O)Cc1c[nH]c2cc(-c3ccc4c(c3)OCO4)ccc12` [MK-247, 2-(6-(benzo[d][1,3]dioxol-5-yl)-1H-indol-3-yl)acetic acid], in experiment [1], the “wt TIR: minimum concentration” value is 10 µM. In experiment [2], the “mut TIR: minimum concentration” value stood at 0.1 µM.

With `O=C(O)Cc1c[nH]c2cc(-c3cccc(Oc4ccccc4)c3)ccc12` [MK-248, 2-(6-(3-phenoxyphenyl)-1H-indol-3-yl)acetic acid], the “wt TIR: minimum concentration” value in experiment [1] was determined as 10 µM. Besides, in experiment [2], the “mut TIR: minimum concentration” value stood at 0.1 µM.

As to `O=C(O)Cc1c[nH]c2ccc(-c3ccc(F)c(Cl)c3)cc12` [MK-255, 2-(5-(3-chloro-4-fluorophenyl)-1H-indol-3-yl)acetic acid], the “wt TIR: minimum concentration” value in experiment [1] worked out at 100 µM. For the same compound, the “mut TIR: minimum concentration” value in experiment [2] was 1 µM.

Consider `Cc1ccc(Cl)c(-c2ccc3[nH]cc(CC(=O)O)c3c2)c1` [MK-307, 2-(5-(2-chloro-5-methylphenyl)-1H-indol-3-yl)acetic acid], for which the “wt TIR: minimum concentration” value in experiment [1] was over 100 µM. Moreover, in experiment [2], the “mut TIR: minimum concentration” value was found to be 10 µM.

Regarding `O=C(O)Cc1c[nH]c2ccc(-c3cc(Cl)ccc3Cl)cc12` [MK-308, 2-(5-(2,5-dichlorophenyl)-1H-indol-3-yl)acetic acid], the “wt TIR: minimum concentration” value in experiment [1] was found to be 100 µM. In addition, in experiment [2], the “mut TIR: minimum concentration” value was determined as 10 µM.

As to `Cc1ccc(Cl)cc1-c1ccc2[nH]cc(CC(=O)O)c2c1` [MK-309, 2-(5-(5-chloro-2-methylphenyl)-1H-indol-3-yl)acetic acid], the “wt TIR: minimum concentration” value in experiment [1] was 100 µM. The “mut TIR: minimum concentration” value in experiment [2] turned out to be 10 µM.

These data come from patent US12150447B2, “Plant growth regulator” (University of Washington, priority 2017, dated 2024).
